# Test results: ChEMBL document CHEMBL4229455, “Synthesis and anticancer activity of novel bisindolylhydroxymaleimide derivatives with potent GSK-3 kinase inhibition” (Bioorg Med Chem, 2018)
# Experiments:
# Assay type in all cases: functional
# [1] = tested on: HCT-116; test: Cytotoxicity against human HCT116 cells assessed as cell growth at 100 uM after 48 hrs by SRB assay relative to control; conditions: HCT-116, 48 h, read-out: Activity
# [2] = tested on: NCI-H23; test: Cytotoxicity against human NCI-H23 cells assessed as cell growth at 0.01 uM after 48 hrs by SRB assay relative to control; conditions: NCI-H23, 48 h, read-out: Activity
# [3] = tested on: HCT-15; test: Cytotoxicity against human HCT15 cells assessed as cell growth at 1 uM after 48 hrs by SRB assay relative to control; conditions: HCT-15, 48 h, read-out: Activity
# [4] = tested on: RXF 393; test: Cytotoxicity against human RXF393 cells assessed as cell growth at 100 uM after 48 hrs by SRB assay relative to control; conditions: RXF 393, 48 h, read-out: Activity
# [5] = tested on: HL-60(TB); test: Cytotoxicity against human HL-60(TB) cells assessed as cell growth at 1 uM after 48 hrs by SRB assay relative to control; conditions: HL-60, 48 h, read-out: Activity
# [6] = tested on: CCRF-CEM; test: Cytotoxicity against human CCRF-CEM cells assessed as cell growth at 100 uM after 48 hrs by SRB assay relative to control; conditions: read-out: Activity
# [7] = tested on: DU-145; test: Cytotoxicity against human DU145 cells after 48 hrs by SRB assay; conditions: DU-145, 48 h
# [8] = tested on: HCT-116; test: Cytotoxicity against human HCT116 cells assessed as cell growth at 0.01 uM after 48 hrs by SRB assay relative to control; conditions: HCT-116, 48 h, read-out: Activity
# [9] = tested on: SF-268; test: Cytotoxicity against human SF268 cells assessed as cell growth at 1 uM after 48 hrs by SRB assay relative to control; conditions: SF-268, 48 h, read-out: Activity
# [10] = tested on: MDA-MB-231; test: Cytotoxicity against human MDA-MB-231 cells assessed as cell growth at 1 uM after 48 hrs by SRB assay relative to control; conditions: MDA-MB-231, 48 h, read-out: Activity
# [11] = tested on: NCI-H23; test: Cytotoxicity against human NCI-H23 cells after 48 hrs by SRB assay; conditions: NCI-H23, 48 h
# [12] = tested on: MCF7; test: Cytotoxicity against human MCF7 cells assessed as cell growth at 0.1 uM after 48 hrs by SRB assay relative to control; conditions: MCF7, 48 h, read-out: Activity
# [13] = tested on: CCRF-CEM; test: Cytotoxicity against human CCRF-CEM cells assessed as cell growth at 0.01 uM after 48 hrs by SRB assay relative to control; conditions: read-out: Activity
# [14] = tested on: SN12C; test: Cytotoxicity against human SN12C cells assessed as cell growth at 100 uM after 48 hrs by SRB assay relative to control; conditions: read-out: Activity
# [15] = tested on: SF-539; test: Cytotoxicity against human SF539 cells assessed as cell growth at 0.01 uM after 48 hrs by SRB assay relative to control; conditions: SF-539, 48 h, read-out: Activity
# [16] = tested on: 786-0; test: Cytotoxicity against human 786-O cells assessed as cell growth at 100 uM after 48 hrs by SRB assay relative to control; conditions: 786-0, 48 h, read-out: Activity
# [17] = tested on: CCRF-CEM; test: Cytotoxicity against human CCRF-CEM cells after 48 hrs by SRB assay
# [18] = tested on: T47D; test: Cytotoxicity against human T47D cells after 48 hrs by SRB assay
# [19] = tested on: UACC-257; test: Cytotoxicity against human UACC257 cells assessed as cell growth at 0.1 uM after 48 hrs by SRB assay relative to control; conditions: UACC-257, 48 h, read-out: Activity
# [20] = tested on: SW-620; test: Cytotoxicity against human SW620 cells assessed as cell growth at 1 uM after 48 hrs by SRB assay relative to control; conditions: SW-620, 48 h, read-out: Activity
# [21] = tested on: NCI-H522; test: Cytotoxicity against human NCI-H522 cells assessed as cell growth at 0.01 uM after 48 hrs by SRB assay relative to control; conditions: NCI-H522, 48 h, read-out: Activity
# [22] = tested on: CAKI-1; test: Cytotoxicity against human Caki1 cells assessed as cell growth at 100 uM after 48 hrs by SRB assay relative to control; conditions: CAKI-1, 48 h, read-out: Activity
# [23] = tested on: DU-145; test: Cytotoxicity against human DU145 cells assessed as cell growth at 0.1 uM after 48 hrs by SRB assay relative to control; conditions: DU-145, 48 h, read-out: Activity
# [24] = tested on: MOLT-4; test: Cytotoxicity against human MOLT4 cells assessed as cell growth at 1 uM after 48 hrs by SRB assay relative to control; conditions: MOLT-4, 48 h, read-out: Activity
# [25] = tested on: HOP-92; test: Cytotoxicity against human HOP92 cells assessed as cell growth at 0.01 uM after 48 hrs by SRB assay relative to control; conditions: HOP-92, 48 h, read-out: Activity
# [26] = tested on: SF-268; test: Cytotoxicity against human SF268 cells after 48 hrs by SRB assay; conditions: SF-268, 48 h; for CC50: read-out: LC50 (the source's name)
# [27] = tested on: SF-539; test: Cytotoxicity against human SF539 cells assessed as cell growth at 0.1 uM after 48 hrs by SRB assay relative to control; conditions: SF-539, 48 h, read-out: Activity
# [28] = tested on: K562; test: Cytotoxicity against human K562 cells assessed as cell growth at 0.01 uM after 48 hrs by SRB assay relative to control; conditions: K562, 48 h, read-out: Activity
# [29] = tested on: TK-10; test: Cytotoxicity against human TK10 cells assessed as cell growth at 1 uM after 48 hrs by SRB assay relative to control; conditions: TK-10, 48 h, read-out: Activity
# [30] = tested on: LOX IMVI; test: Cytotoxicity against human LOXIMVI cells after 48 hrs by SRB assay
# [31] = tested on: NCI-H460; test: Cytotoxicity against human NCI-H460 cells assessed as cell growth at 0.01 uM after 48 hrs by SRB assay relative to control; conditions: NCI-H460, 48 h, read-out: Activity
# [32] = tested on: UACC-62; test: Cytotoxicity against human UACC62 cells after 48 hrs by SRB assay; conditions: UACC-62, 48 h
# [33] = tested on: COLO 205; test: Cytotoxicity against human COLO205 cells assessed as cell growth at 1 uM after 48 hrs by SRB assay relative to control; conditions: COLO 205, 48 h, read-out: Activity
# [34] = tested on: UACC-62; test: Cytotoxicity against human UACC62 cells assessed as cell growth at 0.1 uM after 48 hrs by SRB assay relative to control; conditions: UACC-62, 48 h, read-out: Activity
# [35] = tested on: DU-145; test: Cytotoxicity against human DU145 cells assessed as cell growth at 0.01 uM after 48 hrs by SRB assay relative to control; conditions: DU-145, 48 h, read-out: Activity
# [36] = tested on: SF-295; test: Cytotoxicity against human SF295 cells assessed as cell growth at 0.1 uM after 48 hrs by SRB assay relative to control; conditions: SF-295, 48 h, read-out: Activity
structure (smiles),measurement,setting,value
N#CCCCCCn1cc(C2=C(c3cn(CCCCCC#N)c4ccccc34)C(=O)N(O)C2=O)c2ccccc21,growth at 100 µM,[1],-15%
same,growth at 0.01 µM,[2],95%
same,growth at 1 µM,[3],92%
same,growth at 100 µM,[4],-25%
same,growth at 1 µM,[5],100%
same,growth at 100 µM,[6],3%
same,GI50,[7],27.8 µM
same,LC50 (50% lethal concentration),[7],> 100 µM
same,TGI,[7],> 100 µM
same,growth at 0.01 µM,[8],102%
same,growth at 1 µM,[9],99%
same,growth at 1 µM,[10],82%
same,GI50,[11],6.09 µM
same,LC50 (concentration killing 50% of cells),[11],> 100 µM
same,TGI,[11],> 100 µM
same,growth at 0.1 µM,[12],85%
same,growth at 0.01 µM,[13],91%
same,growth at 100 µM,[14],5%
same,growth at 0.01 µM,[15],94%
same,growth at 100 µM,[16],6%
same,GI50,[17],2.73 µM
same,LC50,[17],> 100 µM
same,TGI,[17],> 100 µM
same,GI50,[18],4.15 µM
same,LC50,[18],> 100 µM
same,TGI,[18],60.5 µM
same,growth at 0.1 µM,[19],100%
same,growth at 1 µM,[20],91%
same,growth at 0.01 µM,[21],89%
same,growth at 100 µM,[22],16%
same,growth at 0.1 µM,[23],103%
same,growth at 1 µM,[24],85%
same,growth at 0.01 µM,[25],97%
same,GI50,[26],10.1 µM
same,TGI,[26],> 100 µM
same,CC50,[26],> 100 µM
same,growth at 0.1 µM,[27],90%
same,growth at 0.01 µM,[28],85%
same,growth at 1 µM,[29],107%
same,GI50,[30],2.53 µM
same,LC50,[30],> 100 µM
same,TGI,[30],48.1 µM
same,growth at 0.01 µM,[31],104%
same,GI50,[32],3.23 µM
same,LC50,[32],84.4 µM
same,TGI,[32],16 µM
same,growth at 1 µM,[33],97%
same,growth at 0.1 µM,[34],94%
same,growth at 0.01 µM,[35],101%
same,growth at 0.1 µM,[36],91%
Cn1cc(C2=C(c3cn(C)c4ncccc34)C(=O)NC2=O)c2ccccc21,growth at 100 µM,[1],-17%
same,growth at 0.01 µM,[2],100%
same,growth at 1 µM,[3],84%
same,growth at 100 µM,[4],-49%
same,growth at 1 µM,[5],113%
same,growth at 100 µM,[6],2%
same,GI50,[7],6.24 µM
same,TGI,[7],36.2 µM
same,growth at 0.01 µM,[8],106%
same,growth at 1 µM,[9],101%
same,growth at 1 µM,[10],79%
same,GI50,[11],4.18 µM
same,TGI,[11],26.7 µM
same,growth at 0.1 µM,[12],87%
same,growth at 0.01 µM,[13],98%
same,growth at 100 µM,[14],-14%
same,growth at 0.01 µM,[15],99%
same,growth at 100 µM,[16],-19%
same,GI50,[17],2.86 µM
same,TGI,[17],> 100 µM
same,GI50,[18],2.37 µM
same,TGI,[18],30.3 µM
same,growth at 0.1 µM,[19],103%
same,growth at 1 µM,[20],88%
same,growth at 0.01 µM,[21],90%
same,growth at 100 µM,[22],-10%
same,growth at 0.1 µM,[23],102%
same,growth at 1 µM,[24],101%
same,growth at 0.01 µM,[25],90%
same,GI50,[26],4.86 µM
same,TGI,[26],48.4 µM
same,CC50,[26],> 100 µM
same,growth at 0.1 µM,[27],107%
same,growth at 0.01 µM,[28],108%
same,growth at 1 µM,[29],87%
same,GI50,[30],2.61 µM
same,TGI,[30],30.2 µM
same,growth at 0.01 µM,[31],97%
same,GI50,[32],4.22 µM
same,TGI,[32],22 µM
same,growth at 1 µM,[33],83%
same,growth at 0.1 µM,[34],97%
same,growth at 0.01 µM,[35],107%
same,growth at 0.1 µM,[36],93%
